Data reported in ChEMBL document CHEMBL1208728, “Design, synthesis, and structure-activity relationships of pyrazole derivatives as potential FabH inhibitors” (Bioorg Med Chem Lett, 2010).
Converted amounts (≈) assume the structure as drawn.

Legend:
Bacillus subtilis = assay: Antimicrobial activity against Bacillus subtilis ATCC 6633 by MTT assay; type: functional
Staphylococcus aureus = assay: Antimicrobial activity against Staphylococcus aureus ATCC 6538 by MTT assay; type: functional
Enterococcus faecalis = assay: Antimicrobial activity against Streptococcus faecalis ATCC 9790 by MTT assay; type: functional
Pseudomonas aeruginosa = assay: Antimicrobial activity against Pseudomonas aeruginosa ATCC 13525 by MTT assay; type: functional
Escherichia coli = assay: Antimicrobial activity against Escherichia coli ATCC 35218 by MTT assay; type: functional
Enterobacter cloacae = assay: Antimicrobial activity against Enterobacter cloacae ATCC 13047 by MTT assay; type: functional
[1] = target: T1, 3-oxoacyl-[acyl-carrier-protein] synthase 3 (Escherichia coli, UniProt C3TDZ2); assay: Inhibition of Escherichia coli FabH
T1 sequence (C3TDZ2 whole entry): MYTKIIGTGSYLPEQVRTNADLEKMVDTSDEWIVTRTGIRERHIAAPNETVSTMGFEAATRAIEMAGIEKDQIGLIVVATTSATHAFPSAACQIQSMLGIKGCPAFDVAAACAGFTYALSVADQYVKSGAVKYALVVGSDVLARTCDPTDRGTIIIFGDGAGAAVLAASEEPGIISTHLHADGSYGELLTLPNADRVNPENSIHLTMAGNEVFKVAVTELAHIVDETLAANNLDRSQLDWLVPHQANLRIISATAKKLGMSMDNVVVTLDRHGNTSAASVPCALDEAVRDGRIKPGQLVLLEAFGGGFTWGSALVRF

[2] = Toxicity against RBC assessed as hemolysis; type: cell-based; conditions: erythrocyte

Row | MIC (Bacillus subtilis) [µg/mL] | MIC (Staphylococcus aureus) [µg/mL] | MIC (Enterococcus faecalis) [µg/mL] | MIC (Pseudomonas aeruginosa) [µg/mL] | MIC (Escherichia coli) [µg/mL] | MIC (Enterobacter cloacae) [µg/mL] | IC50 [1] [µM] | Structure (SMILES) | LC30 [2] [µg/mL]
1 | 12.5 (≈ 38.5 µM) | 25 (≈ 77.1 µM) | 25 (≈ 77.1 µM) | 25 (≈ 77.1 µM) | 25 (≈ 77.1 µM) | > 50 |  | COc1cc(OC)cc(C2CC(c3ccccc3)=NN2C(C)=O)c1 (centres undefined) | 
2 | 6.25 (≈ 20 µM) | 6.25 (≈ 20 µM) | 1.56 (≈ 5 µM) | 12.5 (≈ 40 µM) | 0.39 (≈ 1.25 µM) | 12.5 (≈ 40 µM) | 4.2 | COc1ccc(C2=NN(C(C)=O)C(c3ccc(F)cc3)C2)cc1 (centres undefined) | > 10000
3 | 6.25 (≈ 19 µM) | 25 (≈ 76 µM) | 6.25 (≈ 19 µM) | 25 (≈ 76 µM) | 0.78 (≈ 2.37 µM) | 25 (≈ 76 µM) | 7.6 | COc1ccc(C2=NN(C(C)=O)C(c3ccc(Cl)cc3)C2)cc1 (centres undefined) | > 10000
4 | 12.5 (≈ 33.5 µM) | 12.5 (≈ 33.5 µM) | 3.12 (≈ 8.37 µM) | 12.5 (≈ 33.5 µM) | 1.56 (≈ 4.18 µM) | > 50 | 10.4 | COc1ccc(C2=NN(C(C)=O)C(c3ccc(Br)cc3)C2)cc1 (centres undefined) | > 10000
5 | 25 (≈ 81.1 µM) | 6.25 (≈ 20.3 µM) | 25 (≈ 81.1 µM) | 12.5 (≈ 40.5 µM) | 6.25 (≈ 20.3 µM) | 3.12 (≈ 10.1 µM) | 17.3 | COc1ccc(C2=NN(C(C)=O)C(c3ccc(C)cc3)C2)cc1 (centres undefined) | > 10000
6 | 6.25 (≈ 19.3 µM) | 6.25 (≈ 19.3 µM) | 12.5 (≈ 38.5 µM) | > 50 | 3.12 (≈ 9.63 µM) | 12.5 (≈ 38.5 µM) | 19.6 | COc1ccc(C2=NN(C(C)=O)C(c3ccc(OC)cc3)C2)cc1 (centres undefined) | > 10000
7 | 25 (≈ 76 µM) | > 50 | 12.5 (≈ 38 µM) | > 50 | 6.25 (≈ 19 µM) | 6.25 (≈ 19 µM) | 31.4 | COc1ccc(C2=NN(C(C)=O)C(c3ccccc3Cl)C2)cc1 (centres undefined) | > 10000
8 | 6.25 (≈ 21.2 µM) | > 50 | 50 (≈ 170 µM) | 12.5 (≈ 42.5 µM) | 25 (≈ 84.9 µM) | > 50 | 46.7 | COc1ccc(C2=NN(C(C)=O)C(c3ccccc3)C2)cc1 (centres undefined) | > 10000
9 | 0.39 (≈ 0.807 µM) | 3.12 (≈ 6.46 µM) | 3.12 (≈ 6.46 µM) | 3.12 (≈ 6.46 µM) | 1.56 (≈ 3.23 µM) | 1.56 (≈ 3.23 µM) |  | NC[C@H]1O[C@H](O[C@H]2[C@H](O)[C@@H](O[C@H]3O[C@H](CO)[C@@H](O)[C@H](N)[C@H]3O)[C@H](N)C[C@@H]2N)[C@H](N)[C@@H](O)[C@@H]1O [BEKANAMYCIN] | 

Row | Structure (SMILES) | MIC (Bacillus subtilis) [µg/mL] | MIC (Staphylococcus aureus) [µg/mL] | MIC (Enterococcus faecalis) [µg/mL] | MIC (Pseudomonas aeruginosa) [µg/mL] | MIC (Escherichia coli) [µg/mL] | MIC (Enterobacter cloacae) [µg/mL] | IC50 [1] [µM] | LC30 [2] [µg/mL]
10 | CC1(C)S[C@@H]2[C@H](NC(=O)Cc3ccccc3)C(=O)N2[C@H]1C(=O)O [PENICILLIN G] | 1.56 (≈ 4.67 µM) | 6.25 (≈ 18.7 µM) | 1.56 (≈ 4.67 µM) | 6.25 (≈ 18.7 µM) | 3.12 (≈ 9.35 µM) | 3.12 (≈ 9.35 µM) |  | 
